This experiment deals with rgRSV224 virus. The experiment can be described thus: Antiviral activity: inhibition of rgRSV224 (GFP-expressing RSV) replication in HeLa cells. It counts as cell-based, respiratory syncytial virus. The settings on record: human respiratory syncytial virus, HeLa, 72 h. Summed up:
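HeLa cells infected with GFP-expressing rgRSV224 at MOI 0.02 alongside 4-fold compound dilutions in duplicate (0.5% DMSO). Incubated 3 days at 37 °C; EC50 taken as 50% inhibition of GFP expression by laser microscopy. CC50 measured in parallel uninfected cells by ATP content after 3 days; SI = CC50/EC50.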

Setting [1] is: read-out: RSV-wt_pEC50, rgRSV224 (MOI=0.02) in HeLa cells, GFP expression three days post-virus exposure.

Read-outs that look alike come from different tables or passages of the source.

`N#CCCCn1c(CN2C(=O)C3(CCN(C(=O)OC4CCC4)CC3)c3ccncc32)cc2cc(Cl)ccc21` [Compound 103, Cyclobutyl 1′-{[5-chloro-1-(3-cyanopropyl)-1H-indol-2-yl]-methyl}-2′-oxo-1′,2′-dihydro-1H-spiro[piperidine-4,3′-pyrrolo[2,3-c]pyridine]-1-carboxylate]: the EC50 under setting [1] is 0.263 nM.

Turning to `CC(C)(O)C(=O)N1CCC2(CC1)C(=O)N(Cc1cc3cc(Cl)ccc3n1CCCCF)c1cnccc12` [Compound 106, 1′-{[5-Chloro-1-(4-fluorobutyl)-1H-indol-2-yl]methyl}-1-(2-hydroxy-2-methylpropanoyl)spiro[piperidine-4,3′-pyrrolo-[2,3-c]pyridin]-2′(1′H)-one], the EC50 under setting [1] was 0.24 nM. On the same count and under the same terms, in the case of `CC(C)(O)C(=O)N1CCC2(CC1)C(=O)N(Cc1nc3cc(Cl)ccc3n1CCCC#N)c1cnccc12` [Compound 107, 4-(5-Chloro-2-{[1-(2-hydroxy-2-methylpropanoyl)-2′-oxo-spiro[piperidine-4,3′-pyrrolo[2,3-c]pyridin]-1′(2′H)-yl]-methyl}-1H-benzimidazol-1-yl)butanenitrile] it was 0.0794 nM.

Turning to `N#CCCCn1c(CN2C(=O)C3(CCS(=O)(=O)CC3)c3ccncc32)nc2cc(Cl)ccc21` [Compound 108, 4-{5-Chloro-2-[(1′,1′-dioxido-2-oxo-2′,3′,5′,6′,-tetrahydro-spiro[pyrrolo[2,3-c]pyridine-3,4′-thiopyran]-1(2H)-yl)-methyl]-1H-benzimidazol-1-yl}butanenitrile], the EC50 under setting [1] was 0.871 nM.

In the case of `N#CCCCn1c(CN2C(=O)C3(CC(O)C3)c3ccccc32)nc2cc(Cl)ccc21` (stereo not shown) [Compound 109, 4-{5-Chloro-2-[(3-hydroxy-2′-oxospiro[cyclobutane-1,3′-indol]-1′(2′H)-yl)methyl]-1H-benzimidazol-1-yl}butanenitrile], the EC50 under setting [1] was 0.191 nM. Still for that read-out and setting: in the case of `N#CCCCn1c(COC2CC3(C2)C(=O)N(Cc2nc4cc(Cl)ccc4n2CCCC#N)c2ccccc23)nc2cc(Cl)ccc21` [Compound 110, 4-(5-chloro-2-(((1S,3S)-1′-((5-chloro-1-(3-cyanopropyl)-1H-benzo[d]imidazol-2-yl)methyl)-2′-oxospiro[cyclobutane-1,3′-indoline]-3-yloxy)methyl)-1H-benzo[d]imidazol-1-yl)butanenitrile] it was 1.45 nM; in that of `NS(=O)(=O)N1CCC2(CC1)C(=O)N(Cc1cc3cc(Cl)ccc3n1CCCCF)c1cnccc12` [Compound 111, 1′-{[5-Chloro-1-(4-fluorobutyl)-1H-indol-2-yl]methyl}-2′-oxo-1′,2′-dihydro-1H-spiro[piperidine-4,3′-pyrrolo[2,3-c]-pyridine]-1-sulfonamide], 0.123 nM; in that of `N#CCCCn1c(CN2C(=O)C3(CCN(S(=O)(=O)C4CC4)CC3)c3ccncc32)nc2cc(Cl)ccc21` [Compound 112, 4-(5-Chloro-2-{[1-(cyclopropylsulfonyl)-2′-oxospiro-[piperidine-4,3′-pyrrolo[2,3-c]pyridin]-1′(2′H)-yl]methyl}-1H-benzimidazol-1-yl)butanenitrile], 0.0251 nM. `CC(C)(C)OC(=O)N1CCC2(CC1)C(=O)N(Cc1cc3ccccc3n1CCCC(F)(F)F)c1cnccc12` [Compound 113, tert-Butyl 2′-oxo-1′-{[1-(4,4,4-trifluorobutyl)-1H-indol-2-yl]methyl}-1′,2′-dihydro-1H-spiro[piperidine-4,3′-pyrrolo[2,3-c]pyridine]-1-carboxylate]: the EC50 under setting [1] is 66.1 nM.

On to `CCOP(=O)(OCC)N1CCC2(CC1)C(=O)N(Cc1nc3cc(Cl)ccc3n1CCCC#N)c1cnccc12` [Compound 115, Diethyl (1′-{[5-chloro-1-(3-cyanopropyl)-1H-benzimidazol-2-yl]methyl}-2′-oxo-1′,2′-dihydro-1H-spiro[piperidine-4,3′-pyrrolo[2,3-c]pyridin]-1-yl)phosphonate], for which the EC50 (read-out: RSV-wt_pEC50) was 0.0692 nM. With `CC(O)(C(=O)N1CCC2(CC1)C(=O)N(Cc1nc3cc(Cl)ccc3n1CCCC#N)c1cnccc12)C(F)(F)F` (stereo not shown) [Compound 116, 4-(5-Chloro-2-{[2′-oxo-1-(3,3,3-trifluoro-2-hydroxy-2-methylpropanoyl)spiro[piperidine-4,3′-pyrrolo[2,3-c]pyridin]-1′(2′H)-yl]methyl}-1H-benzimidazol-1-yl)butanenitrile], under setting [1], the EC50 was 0.0708 nM. Same read-out and setting: in the case of `CNC(=O)O[C@H]1C[C@@]2(C1)C(=O)N(Cc1cc3cc(Cl)ccc3n1CCCCF)c1ccccc12` [Compound 120, (1r,3r)-1′-((5-chloro-1-(4-fluorobutyl)-1H-indol-2-yl)methyl)-2′-oxospiro[cyclobutane-1,3′-indolin]-3-yl methylcarbamate] it was 2.4 nM; in that of `CC(C)(O)C(=O)N1CC[C@@]2(C1)C(=O)N(Cc1nc3cc(Cl)ccc3n1CCCS(C)(=O)=O)c1ccccc12` [Compound 121, (R)-1-({5-Chloro-1-[3-(methylsulfonyl)propyl]-1H-benzimidazol-2-yl}methyl)-1′-(2-hydroxy-2-methylpropanoyl)spiro[indole-3,3′-pyrrolidin]-2(1H)-one], 8.51 nM. The same measure, in the same setting: in the case of `CC(C)(O)C(=O)N1CC[C@]2(C1)C(=O)N(Cc1nc3cc(Cl)ccc3n1CCCS(C)(=O)=O)c1ccccc12` [Compound 122, (S)-1-((5-chloro-1-(3-(methylsulfonyl)propyl)-1H-benzo[d]imidazol-2-yl)methyl)-1′-(2-hydroxy-2-methylpropanoyl)spiro[indoline-3,3′-pyrrolidin]-2-one] it was 8.32 nM; in that of `CNC(=O)O[C@H]1C[C@@]2(C1)C(=O)N(Cc1cc3cc(Cl)ccc3n1CCCC#N)c1ccccc12` [Compound 123, (1r,3r)-1′-((5-chloro)-1-(3-cyanopropyl)-1H-indol-2-yl)methyl)-2′-oxospiro[cyclobutane-1,3′-indolin]-3-yl methylcarbamate], 0.339 nM. The same measure, in the same setting: in the case of `N#CCCCn1c(CN2c3ccccc3[C@]3(C[C@H](NC(=O)OC4CC4)C3)C2=O)nc2cc(Cl)ccc21` [Compound 125, cyclopropyl ((1s,3s)-1′-((5-chloro-1-(3-cyanopropyl)-1H-benzo[d]imidazol-2-yl)methyl)-2′-oxospiro[cyclobutane-1,3′-indolin]-3-yl)carbamate] it was 0.288 nM; in that of `N#CCCCn1c(CN2c3ccccc3[C@]3(C[C@@H](NC(=O)OC4CC4)C3)C2=O)nc2cc(Cl)ccc21` [Compound 126, cyclopropyl ((1r,3r)-1-((5-chloro-1-(3-cyanopropyl)-1H-benzo[d]imidazol-2-yl)methyl)-2′-oxospiro[cyclobutane-1,3′-indolin]-3-yl)carbamate], 0.257 nM.

For the molecule `N#CCCCn1c(CN2C(=O)C3(CN(C(=O)[C@H](O)CO)C3)c3ccccc32)cc2cc(Cl)ccc21` [Compound 131, (R)-4-(5-chloro-2-((1-(2,3-dihydroxypropanoyl)-2′-oxospiro[azetidine-3,3′-indolin]-1′-yl)methyl)-1H-indol-1-yl)butanenitrile], under setting [1], the EC50 is 0.427 nM. As for `N#CCCCn1c(CN2C(=O)C3(CCN(C(=O)OC4CC4)CC3)c3ccncc32)cc2cc(Cl)ccc21` [Compound 132, Cyclopropyl 1′-{[5-chloro-1-(3-cyanopropyl)-1H-indol-2-yl]methyl}-2′-oxo-1′,2′-dihydro-1H-spiro[piperidine-4,3′-pyrrolo[2,3-c]pyridine]-1-carboxylate], the EC50 under setting [1] is 0.0646 nM.

Source of the values: patent US9617289B2, “RSV antiviral compounds” (JANSSEN R&D IRELAND, priority 2012, dated 2017).
